Assay results published in publication PMC6277767, “Broad and Region-Specific Impacts of the Synthetic Cannabinoid CP 55,940 in Adolescent and Adult Female Mouse Brains” (Frontiers in Molecular Neuroscience, 2018).

Test system: CD1 female mouse brain lipidome
Experiment: Brain-region lipid levels (HPLC/MS/MS lipidomics) 2 h after single i.p. 3 mg/kg CP 55,940 vs vehicle
Format: in vivo
Parameters: N-arachidonoyl phenylalanine level, Mean / N-stearoyl tryptophan level, Mean / N-stearoyl proline level, Mean / N-stearoyl leucine level, Mean / N-stearoyl phenylalanine level, Mean / N-stearoyl serine level, Mean / N-stearoyl methionine level, Mean: unit: moles per gram
Experimental: The Bloomington Institutional Animal Care and Use Committee of Indiana University reviewed and approved the animal procedures. Female mice from the CD1 strain were utilized to match our study examining THC’s effects on the brain lipidome ([Leishman et al., 2018]). Mice were given a single i.p. injection of either 3 mg/kg CP or 1:1:18 cremophor:ethanol:saline vehicle (please refer to the section “3 mg/kg CP Is Relevant for Synthetic Cannabinoid Abuse and Has Stronger Effects on the Female Mouse Brain Lipidome During Adolescence” for a justification of dose and use of female mice). Three different age groups were given injections: PND 35 and PND 50 adolescents, and adult mice (PND 113). At least eight mice in each age group received CP and at least eight received vehicle. Matching the THC study time course ([Leishman et al., 2018]), mice were sacrificed via rapid decapitation 2 h after injection. Brains were immediately removed and flash-frozen in liquid nitrogen, and then stored at -80°C until dissections were performed. Brains were dissected on an ice-cold dissection plate into the following regions: STR, HIPP, CER, THAL, CTX, HYP, MID, and STEM. These abbreviations for these brain areas will be used exclusively when discussing the results generated by these specific dissections. Each dissected area was immediately placed in liquid nitrogen and then stored at -80°C until used for lipid extraction.
Tissue extracts were performed as previously described ([Bradshaw et al., 2006]; [Stuart et al., 2013]; [Raboune et al., 2014]; [Leishman et al., 2016a],[b], [2017], [2018]). First, samples were shock frozen in liquid nitrogen, weighed, and transferred to a centrifuge tube. The mass of the largest sample was multiplied by 50 to determine how many milliliters of HPLC-grade methanol (Fisher, Fair Lawn, NJ, United States) to add. Then, samples were spiked with 500 pmol deuterium-labeled NAGly (d8NAGly; Cayman Chemical, Ann Arbor, MI, United States). Samples were placed on ice in darkness for 2 h then individually homogenized and centrifuged at 19,000 × g for 20 min at 20°C. Supernatants were diluted with HPLC water (purified in house) to make a solution of 75% water, 25% supernatant. Lipids were partially purified on C18 solid phase extraction columns (Agilent, Palo Alto, CA, United States). A series of four elutions with 1.5 mL of 60%, 75%, 85%, and 100% methanol were collected ([Stuart et al., 2013]; [Leishman et al., 2016a],[b], [2018]).
As previously described ([Bradshaw et al., 2006]; [Tan et al., 2006]; [Smoum et al., 2010]; [Stuart et al., 2013]; [Tortoriello et al., 2013]; [Raboune et al., 2014]; [Leishman et al., 2016a],[b], [2017], [2018]), samples were analyzed using an Applied Biosystems API 3000 triple quadrupole mass spectrometer with electrospray ionization (Foster City, CA, United States). Using an Agilent XDB-C18 reversed phase analytical column and optimized mobile phase gradients, 20 μL from each elution were chromatographed. Two Shimadzu 10ADvp pumps (Columbia, MD, United States) provided the pressure for gradient elution. Mobile phase A: 20% methanol, 80% water (v/v) and 1 mM ammonium acetate (Sigma, St. Louis, MO, United States). Mobile phase B: 100% methanol, 1 mM ammonium acetate. Every method run began with 0% mobile phase B, reached 100% mobile phase B flowing at 0.2 mL/min, and gradually returned to 0% mobile phase B.
This screening library will be referred to as the lipidome when discussing data from this study. HPLC/MS/MS data were analyzed using Analyst software (Applied Biosystems) ([Bradshaw et al., 2006]; [Tan et al., 2006]; [Stuart et al., 2013]; [Tortoriello et al., 2013]; [Raboune et al., 2014]; [Leishman et al., 2016a],[b], [2017], [2018]). Chromatograms (Supplementary Figure 3) were generated by determining the retention time of analytes from the analytical column with a [M-1] or [M+1] parent peak and a fragmentation peak corresponding to the programmed values. […]

[1] = cortex, PND 35, 3 mg/kg CP 55,940
[2] = cortex, PND 35 adolescent female mice, 3 mg/kg CP 55,940
[3] = hippocampus, PND 50, 3 mg/kg CP 55,940 vs Veh

Compound: CCCCCCC(C)(C)c1ccc([C@@H]2C[C@H](O)CC[C@H]2CCCO)c(O)c1 [CP 55,940]
- N-oleoyl valine Magnitude (x Veh level) [1]: 1.33 x Veh level
- N-palmitoyl leucine Direction (rel to Veh) [1]: ↑
- N-palmitoyl leucine, Magnitude (x Veh level) [1]: 1.52 x Veh level
- N-palmitoyl serine Direction (rel to Veh) [1]: ↓
- N-palmitoyl serine, Magnitude (x Veh level) [1]: 0.77 x Veh level
- N-palmitoyl tyrosine Direction (rel to Veh) [1]: ↑
- N-palmitoyl tyrosine Magnitude (x Veh level) [1]: 1.25 x Veh level
- N-palmitoyl valine Direction (rel to Veh) [1]: ↑
- N-palmitoyl valine Magnitude (x Veh level) [1]: 1.57 x Veh level
- N-stearoyl serine Direction (rel to Veh) [1]: ↓
- N-stearoyl serine Magnitude (x Veh level) [1]: 0.84 x Veh level
- N-stearoyl tyrosine Direction (rel to Veh) [1]: ↑
- N-stearoyl tyrosine Magnitude (x Veh level) [1]: 1.46 x Veh level
- N-stearoyl valine Direction (rel to Veh) [1]: ↑
- N-stearoyl valine Magnitude (x Veh level) [1]: 1.32 x Veh level
- PGF2α Direction (rel to Veh) [1]: ↑
- PGF2α Magnitude (x Veh level) [1]: 1.19 x Veh level
- phosphoLEA Direction (rel to Veh) [1]: ↑
- phosphoLEA Magnitude (x Veh level) [1]: 1.51 x Veh level
- 2-arachidonoyl glycerol level, Mean [2]: 1.2E-09
- 2-linoleoyl glycerol level, Mean [2]: 1.12E-10
- 2-oleoyl glycerol level, Mean [2]: 5.02E-09
- 2-palmitoyl glycerol level, Mean [2]: 5.49E-09
- 6-ketoPGF1α level, Mean [2]: 5.64E-12
- Arachidonic acid level, Mean [2]: 1.78E-09
- Linoleic acid level, Mean [2]: 6.06E-10
- N- stearoyl valine level, Mean [2]: 1.46E-12
- N-arachidonoyl GABA level, Mean [2]: 2.26E-11
- N-arachidonoyl alanine level, Mean [2]: 2.81E-12
- N-arachidonoyl dopamine level, Mean [2]: BDL
- N-arachidonoyl ethanolamine level, Mean [2]: 1.13E-10
- N-arachidonoyl glycine level, Mean [2]: 1.35E-11
- N-arachidonoyl methionine level, Mean [2]: 2.69E-13
- N-arachidonoyl phenylalanine level, Mean [2]: 7.25E-13
- N-arachidonoyl proline level, Mean [2]: BDL
- N-arachidonoyl serine level, Mean [2]: 2.41E-12
- N-arachidonoyl taurine level, Mean [2]: 1.3E-10
- N-arachidonoyl tryptophan level, Mean [2]: BDL
- N-arachidonoyl tyrosine level, Mean [2]: 8.47E-13
- N-docosahexaenoyl GABA level, Mean [2]: 4.81E-12
- N-docosahexaenoyl alanine level, Mean [2]: 7.37E-13
- N-docosahexaenoyl ethanolamine level, Mean [2]: 1.21E-10
- N-docosahexaenoyl glycine level, Mean [2]: 1.18E-12
- N-docosahexaenoyl leucine level, Mean [2]: 1.02E-12
- N-docosahexaenoyl phenylalanine level, Mean [2]: 5.48E-13
- N-docosahexaenoyl proline level, Mean [2]: BDL
- N-docosahexaenoyl serine level, Mean [2]: 5.64E-12
- N-docosahexaenoyl tryptophan level, Mean [2]: BDL
- N-docosahexaenoyl tyrosine level, Mean [2]: 5.7E-13
- N-docosahexaenoyl valine level, Mean [2]: 2.57E-13
- N-linoleoyl GABA level, Mean [2]: 3.78E-12
- N-linoleoyl alanine level, Mean [2]: 6.3E-13
- N-linoleoyl ethanolamine level, Mean [2]: 2.31E-10
- N-linoleoyl glycine level, Mean [2]: 3.61E-13
- N-linoleoyl leucine level, Mean [2]: 1.58E-13
- N-linoleoyl phenylalanine level, Mean [2]: 1.48E-13
- N-linoleoyl proline level, Mean [2]: BDL
- N-linoleoyl serine level, Mean [2]: 1.38E-11
- N-linoleoyl tryptophan level, Mean [2]: BDL
- N-nervonoyl valine level, Mean [2]: BDL
- N-oleoyl GABA level, Mean [2]: 9.1E-12
- N-oleoyl alanine level, Mean [2]: 2.8E-12
- N-oleoyl dopamine level, Mean [2]: BDL
- N-oleoyl ethanolamine level, Mean [2]: 4.68E-10
- N-oleoyl glycine level, Mean [2]: 5.53E-12
- N-oleoyl leucine level, Mean [2]: 4.34E-13
- N-oleoyl methionine level, Mean [2]: 4.2E-13
- N-oleoyl phenylalanine level, Mean [2]: 2.01E-12
- N-oleoyl serine level, Mean [2]: 5.9E-11
- N-oleoyl tyrosine level, Mean [2]: 6.76E-13
- N-oleoyl valine level, Mean [2]: 4.65E-13
- N-palmitoyl GABA level, Mean [2]: 1.28E-11
- N-palmitoyl alanine level, Mean [2]: 4.96E-12
- N-palmitoyl ethanolamine level, Mean [2]: 1.43E-10
- N-palmitoyl glycine level, Mean [2]: 1.28E-11
- N-palmitoyl leucine level, Mean [2]: 1.76E-12
- N-palmitoyl methionine level, Mean [2]: 1.41E-12
- N-palmitoyl phenylalanine level, Mean [2]: 3.73E-12
- N-palmitoyl proline level, Mean [2]: 7.7E-14
- N-palmitoyl serine level, Mean [2]: 1.08E-11
- N-palmitoyl tryptophan level, Mean [2]: 9.75E-13
- N-palmitoyl tyrosine level, Mean [2]: 1.99E-12
- N-palmitoyl valine level, Mean [2]: 1.52E-12
- N-stearoyl GABA level, Mean [2]: 1.48E-11
- N-stearoyl alanine level, Mean [2]: 1.04E-11
- N-stearoyl ethanolamine level, Mean [2]: 5.63E-11
- N-stearoyl glycine level, Mean [2]: 7.24E-12
- N-stearoyl leucine level, Mean [2]: 1.55E-12
- N-stearoyl methionine level, Mean [2]: 1.68E-12
- N-stearoyl phenylalanine level, Mean [2]: 3.37E-12
- N-stearoyl proline level, Mean [2]: 3.31E-14
- N-stearoyl serine level, Mean [2]: 1.35E-11
- N-stearoyl tryptophan level, Mean [2]: 3.26E-12
- N-stearoyl tyrosine level, Mean [2]: 3.04E-13
- Oleic acid level, Mean [2]: 6.83E-09
- PGE2 level, Mean [2]: 4.31E-10
- PhosphoLEA level, Mean [2]: 8.98E-12
- 2-linoleoyl glycerol Direction (relative to Veh) [3]: ↓
- 2-linoleoyl glycerol Magnitude (x Veh level) [3]: 0.73 x Veh level
- 6-ketoPGF1α Direction (relative to Veh) [3]: ↑
- 6-ketoPGF1α Magnitude (x Veh level) [3]: 1.46 x Veh level
- Linoleic acid, Direction (relative to Veh) [3]: ↓
